# Reference: ChEMBL document CHEMBL2390950, “Dieckol, a SARS-CoV 3CL(pro) inhibitor, isolated from the edible brown algae Ecklonia cava” (Bioorg Med Chem, 2013)
# The source made the active and inactive calls. The calls are words filed in the database; no cut-off is given here.
# What was measured:
# Vero = test: (§1) Cytotoxicity against african green monkey Vero cells assessed as cell death by MTT assay; type: cell-based; settings: chlorocebus sabaeus, vero
# [1] = target: T1, Replicase polyprotein 1ab (Severe acute respiratory syndrome-related coronavirus, UniProt P0C6X7); test: (§2) Inhibition of SARS coronavirus 3C-like protease cis-cleavage activity transfected in african green monkey Vero cells using SAVLQSGFRK as substrate after 5 hrs by luciferase reporter gene assay; type: cell-based
# [2] = target: Replicase polyprotein 1ab (Severe acute respiratory syndrome-related coronavirus) (UniProt P0C6X7); test: as §2; type: cell-based
# [3] = target: T1, Replicase polyprotein 1ab
# [4] = Selectivity index, ratio of CC50 for african green monkey Vero cells to IC50 for SARS coronavirus 3C-like protease cis-cleavage activity transfected in african green monkey Vero cells; type: functional
# [5] = target: Replicase polyprotein 1ab (Severe acute respiratory syndrome-related coronavirus) (UniProt P0C6X7)
# [6] = target: T1, Replicase polyprotein 1ab; remark: listed apart in the source
# [7] = target: Replicase polyprotein 1ab (Severe acute respiratory syndrome-related coronavirus) (UniProt P0C6X7); remark: listed apart in the source
# [8] = as §1; type: cell-based; settings: chlorocebus sabaeus, Vero cells
# [9] = target: Replicase polyprotein 1ab (Severe acute respiratory syndrome-related coronavirus) (UniProt P0C6X7); test: Inhibition of SARS coronavirus 3C-like protease cis-cleavage activity transfected in african green monkey Vero cells using SAVLQSGFRK as substrate at 200 uM after 5 hrs by luciferase reporter gene assay relative to control; type: cell-based
# [10] = target: T1, Replicase polyprotein 1ab; test: (§3) Binding affinity to SARS coronavirus 3C-like protease by SPR analysis
# [11] = target: Replicase polyprotein 1ab (Severe acute respiratory syndrome-related coronavirus) (UniProt P0C6X7); remark: listed apart in the source
# [12] = target: Replicase polyprotein 1ab (Severe acute respiratory syndrome-related coronavirus) (UniProt P0C6X7); remark: listed apart in the source
# [13] = target: Replicase polyprotein 1ab (Severe acute respiratory syndrome-related coronavirus) (UniProt P0C6X7); remark: listed apart in the source
# [14] = target: Replicase polyprotein 1ab (Severe acute respiratory syndrome-related coronavirus) (UniProt P0C6X7); test: as §3
Structure (SMILES),CC50 (Vero),IC50 [1],inhibition [2],Ki [3],Ratio CC50/IC50 [4],inhibition [5],IC50 [6],inhibition [7],CC50 [8],inhibition [9],Kd [10],Ratio IC50 [11],Ratio IC50 [12],Ratio IC50 [13],Activity [14]
Oc1cc(O)cc(Oc2c(O)cc(O)c3c2Oc2c(O)cc(Oc4c(O)cc(O)cc4O)cc2O3)c1,> 200 µM,112 µM,Dose-dependent effect,19.3 µM,>1.8,Active,42.1 µM,Dose-dependent effect,,,,,,,
Oc1cc(O)cc(Oc2c(O)cc(Oc3c(O)cc(O)cc3O)cc2O)c1 [TRIPHLORETHOL A],,,,,<1,,,Dose-dependent effect,> 200 µM,15%,,,,,
Oc1cc(O)c(Oc2cc(O)cc(O)c2Oc2cc(O)cc(O)c2-c2c(O)cc(O)cc2O)c(O)c1 [FUCODIPHLOROETHOL G],> 200 µM,177 µM,Dose-dependent effect,63.5 µM,>1.1,Active,22.5 µM,Dose-dependent effect,,,,,,,
COc1ccc([C@@H]2CC(=O)c3c(O)cc(O)cc3O2)cc1O [HESPERETIN],,,,,,,,,,,24.5 µM,,,,
Oc1cc(O)c2oc3cc(O)c4oc5cc(O)cc(O)c5oc4c3oc2c1 [DIOXINODEHYDROECKOL],> 200 µM,146 µM,Dose-dependent effect,,>1.4,,158 µM,Dose-dependent effect,,,,,,,
Oc1cc(O)cc(Oc2c(O)cc(O)c3c2Oc2c(O)cc(O)cc2O3)c1 [ECKOL],> 200 µM,,,8.2 µM,<1,Active,8.8 µM,Dose-dependent effect,,30%,,,,,
Oc1cc(O)cc(Oc2c(O)cc(O)c3c2Oc2c(O)cc(Oc4c(O)cc(Oc5c(O)cc(O)c6c5Oc5c(O)cc(O)cc5O6)cc4O)cc2O3)c1 [DIECKOL],> 200 µM,68.1 µM,Dose-dependent effect,2.4 µM,>2.9,Active,2.7 µM,Dose-dependent effect,,,10.3 µM,60,30,50,Dose-dependent effect
Oc1cc(O)cc(Oc2c(Oc3c(O)cc(O)cc3O)cc(O)c3c2Oc2c(O)cc(O)cc2O3)c1 [2-PHLOROECKOL],> 200 µM,112 µM,Dose-dependent effect,24 µM,>1.8,Active,13.3 µM,Dose-dependent effect,,,,,,,
Oc1cc(O)cc(Oc2c(O)cc(O)c3c2Oc2c(O)cc4oc5c(Oc6cc(O)cc(O)c6)c(O)cc(O)c5c4c2O3)c1 [PHLOROFUCOFUROECKOL A],> 200 µM,175 µM,Dose-dependent effect,10.6 µM,>1.1,Active,16.7 µM,Dose-dependent effect,,,,,,,
Oc1cc(O)cc(O)c1 [PHLOROGLUCINOL],> 200 µM,,,,,,> 200 µM,,,,,,,,
